The values that follow come from ChEMBL document CHEMBL1140374, “2-n-Butyl-9-methyl-8-[1,2,3]triazol-2-yl-9H-purin-6-ylamine and analogues as A2A adenosine receptor antagonists. Design, synthesis, and pharmacological characterization” (J Med Chem, 2005).

For experiment [1], the target named is GABA-A receptor; anion channel. In words: (§1) Percent inhibition against GABAA receptor alpha at a compound concentration of 1 uM. It counts as protein-complex assay, Homo sapiens.
In another experiment the target is Adenosine receptor A2a (Homo sapiens, UniProt P29274). In words: biochemical.
Chain of Adenosine receptor A2a (P29274 whole entry): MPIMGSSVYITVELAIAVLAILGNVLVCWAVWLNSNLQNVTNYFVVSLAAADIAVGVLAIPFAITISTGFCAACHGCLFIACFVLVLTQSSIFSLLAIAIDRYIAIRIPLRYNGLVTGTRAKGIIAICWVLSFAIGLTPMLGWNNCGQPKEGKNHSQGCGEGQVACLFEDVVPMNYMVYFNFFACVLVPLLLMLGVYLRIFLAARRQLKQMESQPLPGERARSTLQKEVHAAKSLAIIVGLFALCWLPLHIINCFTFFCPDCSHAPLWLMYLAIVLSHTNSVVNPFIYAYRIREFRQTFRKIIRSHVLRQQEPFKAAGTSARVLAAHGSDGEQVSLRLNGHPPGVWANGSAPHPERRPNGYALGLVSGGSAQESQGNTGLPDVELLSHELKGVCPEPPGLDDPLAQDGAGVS
The target in the next experiment is T1, Adenosine receptor A2b (Homo sapiens, UniProt P29275).
T1 sequence (P29275 whole entry): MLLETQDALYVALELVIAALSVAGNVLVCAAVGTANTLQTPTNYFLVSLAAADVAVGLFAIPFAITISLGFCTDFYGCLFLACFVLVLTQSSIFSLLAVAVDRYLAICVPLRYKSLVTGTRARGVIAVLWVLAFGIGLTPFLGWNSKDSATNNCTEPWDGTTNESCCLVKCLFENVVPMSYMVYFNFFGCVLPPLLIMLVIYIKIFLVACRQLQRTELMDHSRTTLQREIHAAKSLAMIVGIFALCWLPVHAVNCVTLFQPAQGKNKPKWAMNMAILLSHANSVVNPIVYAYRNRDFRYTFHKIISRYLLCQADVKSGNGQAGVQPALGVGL
In words: Binding affinity towards human Adenosine A2b receptor expressed in HEK293 cells using 5 nM [3H]DPCPX. It counts as cell-based.

A further experiment has as its target T2, Adenosine receptor A1 (Homo sapiens, UniProt P30542).
T2 sequence (P30542 whole entry): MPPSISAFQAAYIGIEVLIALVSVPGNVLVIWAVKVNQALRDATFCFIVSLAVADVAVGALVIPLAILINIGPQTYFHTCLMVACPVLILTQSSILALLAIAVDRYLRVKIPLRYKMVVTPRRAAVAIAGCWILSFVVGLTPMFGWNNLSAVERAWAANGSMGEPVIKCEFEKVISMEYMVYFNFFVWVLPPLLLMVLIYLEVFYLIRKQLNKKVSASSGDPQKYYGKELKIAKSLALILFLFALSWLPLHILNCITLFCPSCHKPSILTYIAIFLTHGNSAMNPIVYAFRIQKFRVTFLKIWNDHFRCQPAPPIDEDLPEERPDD
In words: biochemical.

Experiment [2] deals with Vesicular acetylcholine transporter (Homo sapiens, UniProt Q16572). In words: (§2) Percent inhibition against Acetylcholine transporter at 1 uM.
Chain of Vesicular acetylcholine transporter (Q16572 whole entry): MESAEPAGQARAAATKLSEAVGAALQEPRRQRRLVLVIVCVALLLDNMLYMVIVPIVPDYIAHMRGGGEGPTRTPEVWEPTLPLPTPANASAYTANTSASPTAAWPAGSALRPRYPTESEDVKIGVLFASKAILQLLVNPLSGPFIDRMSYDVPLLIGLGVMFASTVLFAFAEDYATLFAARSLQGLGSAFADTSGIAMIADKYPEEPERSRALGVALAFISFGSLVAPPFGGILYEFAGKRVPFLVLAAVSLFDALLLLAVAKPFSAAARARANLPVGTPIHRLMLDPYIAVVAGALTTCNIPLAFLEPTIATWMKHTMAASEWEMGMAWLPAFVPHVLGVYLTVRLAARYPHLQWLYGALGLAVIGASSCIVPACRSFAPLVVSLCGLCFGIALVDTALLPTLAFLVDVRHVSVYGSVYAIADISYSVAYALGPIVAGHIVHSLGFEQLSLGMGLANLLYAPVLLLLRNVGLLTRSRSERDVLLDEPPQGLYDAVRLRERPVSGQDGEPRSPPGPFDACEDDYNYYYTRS
Experiment [3] in a line: (§3) Percent inhibition against P2Y Purinoceptor at 1 uM. Also noted: species or system Homo sapiens.
For experiment [4], the target named is Muscarinic acetylcholine receptor M2 (Homo sapiens) (UniProt P08172). As to conditions: 1 uM.
Experiment [5] concerns the target 5-hydroxytryptamine receptor 1A (Homo sapiens) (UniProt P08908). Put plainly: Percent inhibition against 5-hydroxytryptamine 1A receptor at 1 uM.
For experiment [6], the species on record is Homo sapiens. Described as §3.
Experiment [7] addresses Beta-2 adrenergic receptor (Homo sapiens) (UniProt P07550). In words: Percent inhibition against Beta-2 adrenergic receptor at 1 uM.
Experiment [8] has as its target Sodium-dependent serotonin transporter (Homo sapiens) (UniProt P31645). As to conditions: 1 uM.
Experiment [9] deals with 5-hydroxytryptamine receptor 5A (Homo sapiens) (UniProt P47898). As to conditions: 1 uM.
In experiment [10] the target is D(1B) dopamine receptor (Homo sapiens) (UniProt P21918). In words: Percent inhibition against Dopamine receptor D5 at 1 uM.
Experiment [11] deals with D(1A) dopamine receptor (Homo sapiens) (UniProt P21728). The settings on record: 1 uM.
Chain of D(1A) dopamine receptor (Homo sapiens) (P21728 whole entry): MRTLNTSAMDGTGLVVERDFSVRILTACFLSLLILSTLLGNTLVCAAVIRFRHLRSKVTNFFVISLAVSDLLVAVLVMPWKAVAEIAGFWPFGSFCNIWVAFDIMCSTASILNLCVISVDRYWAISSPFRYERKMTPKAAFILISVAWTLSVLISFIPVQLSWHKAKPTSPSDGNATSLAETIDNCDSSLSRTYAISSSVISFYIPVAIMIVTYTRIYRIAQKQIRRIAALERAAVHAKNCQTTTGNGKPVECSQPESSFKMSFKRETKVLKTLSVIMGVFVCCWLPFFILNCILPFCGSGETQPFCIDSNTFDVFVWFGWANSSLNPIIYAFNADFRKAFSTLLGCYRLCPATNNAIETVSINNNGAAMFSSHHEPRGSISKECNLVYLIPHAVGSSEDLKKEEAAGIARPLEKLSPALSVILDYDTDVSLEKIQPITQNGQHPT
Experiment [12] deals with Adrenergic receptor alpha-1 (Homo sapiens) (UniProt P35348+P25100+P35368). As to conditions: 1 uM.
The target of experiment [13] is Muscarinic acetylcholine receptor M3 (Homo sapiens) (UniProt P20309). In words: Percent inhibition against Muscarinic acetylcholine receptor M3 at 1 uM.
For experiment [14], the target named is 5-hydroxytryptamine receptor 6 (Homo sapiens) (UniProt P50406). In words: Percent inhibition against 5-hydroxytryptamine 6 receptor at 1 uM.
The target of experiment [15] is Equilibrative nucleoside transporter 1 (Homo sapiens) (UniProt Q99808). In words: Percent inhibition against ADO transporter at 1 uM nonselective.
Experiment [16] addresses Muscarinic acetylcholine receptor M1 (Homo sapiens) (UniProt P11229). As to conditions: at 1 µM.
The target of experiment [17] is T3, GABA-A receptor; anion channel (Homo sapiens) (UniProt P14867+P47870+P18507+P28472+P48169+Q99928+Q9UN88+P34903+O00591+O14764+Q8N1C3+P18505+P78334+P47869+P31644+Q16445). In words: Percent inhibition against central Benzodiazepine receptor at 1 uM. The experiment is classed as protein-complex assay.
The species named for experiment [18] is Homo sapiens. Put plainly: Percent inhibition against P2X Purinergic receptor at 1 uM. It counts as tissue-based.
Experiment [19] addresses Glutamate receptor ionotropic AMPA (Homo sapiens) (UniProt P48058+P42263+P42262+P42261). Put plainly: (§4) Percent inhibition against AMPA receptor at 1 uM. The experiment is classed as protein-complex assay.
For experiment [20], the target named is Vesicular acetylcholine transporter (Homo sapiens) (UniProt Q16572). The description is as §2.
Chain of Vesicular acetylcholine transporter (Homo sapiens) (Q16572 whole entry): as the sequence (Q16572 whole entry) above
In experiment [21] the target is T4, Glutamate [NMDA] receptor (Homo sapiens) (UniProt Q05586+Q12879+Q13224+O15399+O60391+Q14957+Q8TCU5). In words: Percent inhibition against PCP receptor at 1 uM. The experiment is classed as protein-complex assay.
The target in experiment [22] is Opioid receptors; mu/kappa/delta (Homo sapiens) (UniProt P41145+P41143+P35372). As to conditions: at 1 µM.
Chain of Opioid receptors; mu/kappa/delta (Homo sapiens) (P35372 whole entry, looked up): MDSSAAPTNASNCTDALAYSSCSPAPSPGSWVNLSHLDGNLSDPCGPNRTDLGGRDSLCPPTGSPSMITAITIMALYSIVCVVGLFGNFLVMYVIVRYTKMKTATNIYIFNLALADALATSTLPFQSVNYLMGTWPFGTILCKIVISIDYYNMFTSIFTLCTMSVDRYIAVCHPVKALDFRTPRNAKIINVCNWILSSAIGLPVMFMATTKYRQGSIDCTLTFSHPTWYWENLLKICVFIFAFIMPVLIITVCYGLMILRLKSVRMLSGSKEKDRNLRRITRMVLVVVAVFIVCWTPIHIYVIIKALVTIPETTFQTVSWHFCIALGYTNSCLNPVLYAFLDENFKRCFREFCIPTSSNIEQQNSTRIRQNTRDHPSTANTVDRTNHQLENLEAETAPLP
Chain of Opioid receptors; mu/kappa/delta (Homo sapiens) (P41143 whole entry, looked up): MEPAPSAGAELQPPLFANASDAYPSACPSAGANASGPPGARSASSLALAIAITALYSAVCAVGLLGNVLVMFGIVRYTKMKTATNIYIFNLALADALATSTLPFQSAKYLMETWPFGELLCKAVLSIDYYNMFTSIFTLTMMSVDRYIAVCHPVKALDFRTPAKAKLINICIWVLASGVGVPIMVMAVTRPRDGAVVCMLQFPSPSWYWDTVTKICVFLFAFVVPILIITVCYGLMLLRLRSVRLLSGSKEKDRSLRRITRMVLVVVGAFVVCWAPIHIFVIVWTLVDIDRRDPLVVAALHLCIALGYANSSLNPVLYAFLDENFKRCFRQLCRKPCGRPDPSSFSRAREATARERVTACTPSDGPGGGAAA
Chain of Opioid receptors; mu/kappa/delta (Homo sapiens) (P41145 whole entry, looked up): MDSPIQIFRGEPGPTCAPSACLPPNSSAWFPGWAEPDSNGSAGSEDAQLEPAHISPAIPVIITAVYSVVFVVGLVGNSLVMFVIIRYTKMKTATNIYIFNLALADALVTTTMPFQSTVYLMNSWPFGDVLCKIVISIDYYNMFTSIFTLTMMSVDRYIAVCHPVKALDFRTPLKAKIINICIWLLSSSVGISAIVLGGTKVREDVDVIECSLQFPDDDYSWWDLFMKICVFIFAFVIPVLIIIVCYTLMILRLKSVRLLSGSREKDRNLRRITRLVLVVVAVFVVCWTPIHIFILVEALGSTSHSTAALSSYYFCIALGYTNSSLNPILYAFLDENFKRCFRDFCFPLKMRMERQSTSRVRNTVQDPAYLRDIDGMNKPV
Experiment [23] concerns the target Sodium-dependent dopamine transporter (Homo sapiens) (UniProt Q01959). The settings on record: 1 uM.
Experiment [24] concerns the target T3, GABA-A receptor; anion channel (Homo sapiens). The experiment is described as §1. It counts as protein-complex assay.
The target in experiment [25] is D(3) dopamine receptor (Homo sapiens) (UniProt P35462). Put plainly: Percent inhibition against Dopamine receptor D3 at 1 uM.
Chain of D(3) dopamine receptor (Homo sapiens) (P35462 whole entry): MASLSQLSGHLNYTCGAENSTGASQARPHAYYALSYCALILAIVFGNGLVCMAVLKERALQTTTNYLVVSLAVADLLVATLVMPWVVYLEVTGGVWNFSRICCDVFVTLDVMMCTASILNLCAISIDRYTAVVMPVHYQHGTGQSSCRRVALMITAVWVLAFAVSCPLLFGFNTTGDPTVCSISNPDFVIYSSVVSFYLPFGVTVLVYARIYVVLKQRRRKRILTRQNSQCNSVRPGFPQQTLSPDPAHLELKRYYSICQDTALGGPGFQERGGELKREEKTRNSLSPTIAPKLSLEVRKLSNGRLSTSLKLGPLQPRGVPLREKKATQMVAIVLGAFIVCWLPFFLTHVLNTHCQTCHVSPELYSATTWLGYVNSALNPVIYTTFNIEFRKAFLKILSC
The target in experiment [26] is 5-hydroxytryptamine receptor 4 (Homo sapiens) (UniProt Q13639). Put plainly: Percent inhibition against 5-hydroxytryptamine 4 receptor at 1 uM.
Experiment [27] concerns the target D(2) dopamine receptor (Homo sapiens) (UniProt P14416). As to conditions: 1 uM.
The target of experiment [28] is GABA-B receptor (Homo sapiens) (UniProt Q9UBS5+O75899). In words: Percent inhibition against GABA-B receptor at 1 uM. It counts as protein-complex assay.
Experiment [29] concerns the target Sodium-dependent noradrenaline transporter (Homo sapiens) (UniProt P23975). Put plainly: Percent inhibition against Norepinephrine transporter at 1 uM nonselective.
A further experiment deals with Adenosine receptor A3 (Homo sapiens, UniProt P0DMS8). In words: Binding affinity towards human Adenosine A3 receptor expressed in HEK293 cells using 0.1 nM [3H]AB-MECA. It counts as cell-based.
Chain of Adenosine receptor A3 (P0DMS8 whole entry): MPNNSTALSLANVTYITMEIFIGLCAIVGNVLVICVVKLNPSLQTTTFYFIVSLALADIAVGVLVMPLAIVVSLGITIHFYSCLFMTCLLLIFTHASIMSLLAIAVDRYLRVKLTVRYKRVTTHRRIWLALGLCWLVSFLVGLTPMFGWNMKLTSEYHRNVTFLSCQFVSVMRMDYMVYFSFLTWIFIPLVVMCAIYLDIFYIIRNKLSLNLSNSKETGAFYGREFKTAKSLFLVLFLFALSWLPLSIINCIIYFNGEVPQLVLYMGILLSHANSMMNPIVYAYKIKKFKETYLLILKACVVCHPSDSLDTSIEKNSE
In experiment [30] the target is Muscarinic acetylcholine receptor M4 (Homo sapiens) (UniProt P08173). In words: Percent inhibition against Muscarinic acetylcholine receptor M4 at 1 uM.
Experiment [31] has as its target T4, Glutamate [NMDA] receptor (Homo sapiens). In words: Percent inhibition against NMDA receptor at a compound concentration of 1 uM. The experiment is classed as protein-complex assay.
Experiment [32] deals with 5-hydroxytryptamine receptor 2A (Homo sapiens) (UniProt P28223). In words: Percent inhibition against 5-hydroxytryptamine 2A receptor at 1 uM.
In experiment [33] the target is Beta-1 adrenergic receptor (Homo sapiens) (UniProt P08588). The settings on record: 1 uM.
For experiment [34], the target named is D(4) dopamine receptor (Homo sapiens) (UniProt P21917). The settings on record: 1 uM.
The target of experiment [35] is Serotonin 3 (5-HT3) receptor (Homo sapiens) (UniProt P46098+A5X5Y0+O95264+Q70Z44+Q8WXA8). The settings on record: 1 uM.
Experiment [36] addresses 5-hydroxytryptamine receptor 2C (Homo sapiens) (UniProt P28335). Put plainly: Percent inhibition against 5-hydroxytryptamine 2C receptor at 1 uM.
In experiment [37] the target is Muscarinic acetylcholine receptor M5 (Homo sapiens) (UniProt P08912). Put plainly: Percent inhibition against Muscarinic acetylcholine receptor M5 at 1 uM.
For experiment [38], the target named is Glutamate receptor ionotropic AMPA (Homo sapiens, UniProt P42261+P42262+P42263+P48058). The description is as §4. The experiment is classed as protein-complex assay.

Each structure is given as a SMILES string.

Chain of Sodium-dependent serotonin transporter (Homo sapiens) (P31645 whole entry, looked up): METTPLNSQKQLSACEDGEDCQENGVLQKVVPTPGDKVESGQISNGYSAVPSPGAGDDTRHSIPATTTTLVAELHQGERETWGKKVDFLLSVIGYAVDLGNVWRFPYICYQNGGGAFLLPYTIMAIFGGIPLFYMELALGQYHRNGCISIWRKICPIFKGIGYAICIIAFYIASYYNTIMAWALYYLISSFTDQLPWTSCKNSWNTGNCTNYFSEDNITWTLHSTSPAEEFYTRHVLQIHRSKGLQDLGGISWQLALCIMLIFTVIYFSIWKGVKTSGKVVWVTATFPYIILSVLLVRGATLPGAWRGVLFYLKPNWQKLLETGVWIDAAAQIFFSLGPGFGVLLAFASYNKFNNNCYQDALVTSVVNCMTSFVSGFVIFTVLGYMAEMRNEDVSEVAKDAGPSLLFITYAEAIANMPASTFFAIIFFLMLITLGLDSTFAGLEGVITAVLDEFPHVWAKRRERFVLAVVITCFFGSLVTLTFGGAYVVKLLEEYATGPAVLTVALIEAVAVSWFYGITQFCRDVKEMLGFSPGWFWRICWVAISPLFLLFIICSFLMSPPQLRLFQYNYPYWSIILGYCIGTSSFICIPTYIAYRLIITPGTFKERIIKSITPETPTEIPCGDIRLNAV
Chain of Muscarinic acetylcholine receptor M1 (Homo sapiens) (P11229 whole entry): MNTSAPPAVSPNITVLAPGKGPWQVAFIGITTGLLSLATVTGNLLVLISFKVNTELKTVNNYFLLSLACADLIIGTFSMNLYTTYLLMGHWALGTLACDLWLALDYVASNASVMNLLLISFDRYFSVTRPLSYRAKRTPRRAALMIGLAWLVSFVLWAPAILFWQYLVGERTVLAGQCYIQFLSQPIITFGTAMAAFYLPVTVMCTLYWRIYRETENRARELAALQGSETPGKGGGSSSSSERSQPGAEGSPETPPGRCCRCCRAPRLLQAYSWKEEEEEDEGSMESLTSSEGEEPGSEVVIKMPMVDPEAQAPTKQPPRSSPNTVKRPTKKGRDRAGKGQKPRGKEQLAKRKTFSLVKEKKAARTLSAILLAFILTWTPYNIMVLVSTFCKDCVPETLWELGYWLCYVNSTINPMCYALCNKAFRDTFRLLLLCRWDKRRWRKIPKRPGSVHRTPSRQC
Chain of 5-hydroxytryptamine receptor 1A (Homo sapiens) (P08908 whole entry): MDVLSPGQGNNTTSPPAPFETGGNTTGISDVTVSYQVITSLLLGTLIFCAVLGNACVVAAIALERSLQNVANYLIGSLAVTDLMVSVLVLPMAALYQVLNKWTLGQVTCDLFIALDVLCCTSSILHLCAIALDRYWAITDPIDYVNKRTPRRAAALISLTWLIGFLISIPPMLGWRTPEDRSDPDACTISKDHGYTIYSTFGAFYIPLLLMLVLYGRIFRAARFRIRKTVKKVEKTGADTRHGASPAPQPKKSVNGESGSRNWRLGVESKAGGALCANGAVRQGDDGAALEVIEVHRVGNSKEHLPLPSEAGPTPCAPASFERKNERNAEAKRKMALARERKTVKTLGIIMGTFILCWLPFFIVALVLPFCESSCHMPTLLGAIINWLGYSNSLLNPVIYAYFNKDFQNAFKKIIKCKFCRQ

For `NCc1cc(=O)[nH]o1` [MUSCIMOL], half-maximal inhibition in experiment [1] (IC50) was put at 16 nM.

As to `CCCc1nc(N)c2nc(-n3nccn3)n(C)c2n1`, the Ki was determined as 83.7 nM at Adenosine receptor A2a, 18 nM on Adenosine receptor A2b and 266 nM at Adenosine receptor A1.

On Adenosine receptor A1, `Cn1c(-n2nccn2)nc2c(N)ncnc21` gave a Ki of 0.4 nM.

Turning to `O=c1nc2[nH]c3ccccc3nc-2c(=O)[nH]1` [ALLOXAZINE], the Ki on Adenosine receptor A2a is 935 nM; at Adenosine receptor A1, over 100000 nM.

`Cn1c(-n2nccn2)nc2c(N)nccc21`: the inhibition constant (Ki) on Adenosine receptor A2a came to 51.6 nM; on Adenosine receptor A2b, 518 nM; at Adenosine receptor A1 it was 1060 nM.

In turn, `C[N+]1(C)CCOC(O)(c2ccc(-c3ccc(C4(O)C[N+](C)(C)CCO4)cc3)cc2)C1` (centres undefined) came in with an IC50 in [2] of 12 nM.

`Nc1ncnc2c1ncn2[C@@H]1O[C@H](COP(=O)(O)CP(=O)(O)OP(=O)(O)O)[C@@H](O)[C@H]1O` [DIPHOSPHOMETHYLPHOSPHONIC ACID ADENOSYL ESTER] yielded an inhibition in experiment [3] of 14%.

As to `CCCCCc1nc(N)c2nc(-n3nccn3)n(C)c2n1`, the inhibition (in [4]; in [5]; in the experiment filed under Homo sapiens [6]; in experiment [7]; in experiment [8]; in [9]) was under 10% in each case. Also, the inhibition in [10] was under 10%; in [11], under 10%; in experiment [12] it was under 10%; in experiment [13], under 10%; in experiment [14], under 10%; in experiment [15], 34%. Moreover, the inhibition (in experiment [16]; in experiment [17]; in the experiment filed under Homo sapiens [18]; in experiment [19]; in experiment [20]; in [21]) was under 10% throughout. Also, the inhibition in experiment [22], in [23], in experiment [24], in experiment [25], in [26] and in [27] was under 10% throughout. Further, the inhibition in [28], in experiment [29], in [30], in [31], in experiment [32] and in experiment [33] was under 10% in each case. For the same compound, the inhibition in experiment [34], in experiment [35], in experiment [36] and in experiment [37] was under 10% each time. On Adenosine receptor A3, this compound had a Ki of 760 nM.

Consider `CCCCc1nc(N)c2nc(-n3nccn3)n(C)c2n1` [ST1535], for which the inhibition (in [4]; in experiment [5]; in the experiment listed under Homo sapiens [6]; in [7]; in experiment [8]; in experiment [9]) was under 10% each time. The inhibition in experiment [10] is under 10%; in experiment [11] it was under 10%; in [12], under 10%; in [13], under 10%; in [14] it was under 10%; in [15], 24%. For the same compound, the inhibition (in experiment [16]; in [17]; in the experiment filed under Homo sapiens [18]; in experiment [19]; in experiment [20]; in experiment [21]) was under 10% in each case. The inhibition in experiment [22], in [23], in experiment [24], in experiment [25], in [26] and in experiment [27] was under 10% throughout. The inhibition in experiment [28], in experiment [29], in [30], in experiment [31], in experiment [32] and in experiment [33] was under 10% each time. Moreover, the inhibition in experiment [34], in [35], in [36] and in [37] was under 10% throughout. In addition, the inhibition constant (Ki) at Adenosine receptor A2a is 6.6 nM; on Adenosine receptor A2b it was 352 nM; on Adenosine receptor A3, over 1000 nM; at Adenosine receptor A1 it was 71.8 nM.

As to `O=C(O)[C@@H]1C[C@H](CP(=O)(O)O)CCN1` [SELFOTEL], the IC50 in [38] was 967 nM.

In experiment [3], `Nc1ncnc2c1ncn2[C@H]1C[C@H](O)[C@@H](COP(O)(=S)OP(=O)(O)OP(=O)(O)O)O1` (some centres undefined) registered an inhibition of 22%.

With `Cc1cc2c(nc(-n3nccn3)n2C)c(N)n1`, the Ki was 120 nM on Adenosine receptor A2a, 140 nM at Adenosine receptor A2b and 340 nM on Adenosine receptor A1.

For the compound `Cc1nc(N)c2nc(-n3nccn3)n(C)c2n1`, on Adenosine receptor A1, affinity was put at a Ki of 10.4 nM.

For `CCn1c(=O)c2c(nc(/C=C/c3ccc(OC)c(OC)c3)n2C)n(CC)c1=O` [ISTRADEFYLLINE], the Ki on Adenosine receptor A1 was over 1000 nM.

Turning to `CC(C)c1nc(N)c2nc(-n3nccn3)n(C)c2n1`, the Ki on Adenosine receptor A2a was found to be 481 nM; at Adenosine receptor A1 it was 2270 nM.

The term IC50 denotes the concentration that inhibits the measured activity by half. Usually Ki stands for a dissociation constant, usually derived from enzyme kinetics or from competition with a known ligand. Higher therefore signals weaker binding. In general, inhibition refers to the drop in the measured response relative to a control, in per cent.
